PMC10447463, “Data-mining unveils structure–property–activity correlation of viral infectivity enhancing self-assembling peptides” (Nature Communications, 2023)

Key:
[1] = Aggregate analysis by widefield fluorescence microscopy; format: physicochemical
In short: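 Peptides diluted from 10 mg/mL DMSO stock to 1 mg/mL in PBS and aged 1 d at RT were diluted to 0.1 mg/mL with 50 µM ThT, then imaged with a 10x objective in fluorescence (ex 480/40, em 527/30 nm) and brightfield. Particles >10 µm^2 were counted by automated object counting over ≥3 images.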

[2] = previously reported peptides only; ref sieste 2021 or Schilling2019; cited from earlier work
Description: Supplement 41467_2023_40663_MOESM7_ESM.zip/FigS17.csv, table | column: Conversion Rate / % ( from sieste 2021 or Schilling2019)

[3] = tested on: HIV-1 infection of TZM-bl cells; settings: literature report; cited from earlier work
Description: page 30: 8. Amyloid peptides from functional and pathogenic contexts Table S1 Selected amyloid peptides from protein data bases and literature reports. Note, that the peptide KLVFFAK, derived from amyloid ab was reported for retroviral transduction enhancement, however with very low efficiencies (> 4 fold compared to virus only). 33 ”+” indicates reported ThT fluorescence (ThT) or fibril formation, “0” indicates no data reported. All peptides were synthesized via Fmoc SPPS protocol and purchased . w ≥ . sequence ThT fibril pI charge hfauchere derived from original context ref. IKFLSVN + + 9.7 ...

[4] = Fig S8 panels A, C, 3 fields of 1330 µm x 1330 µm
[5] = Fig S8 panels B, D, average aggregate area, 3 fields of 1330 µm x 1330 µm
[6] = Fig S8 panels B, D, median aggregate area, 3 fields of 1330 µm x 1330 µm
[7] = Fig S8 panels B, D, 3 fields of 1330 µm x 1330 µm
[8] = Fig S8 panels B, D, widefield fluorescence microscopy, 3 fields of 1330 µm x 1330 µm

Substance | Avg Area in 3 *(1330 µm *1330 µm) ([1]; Fig S8 panels A, C) | Log 10 Number of aggregates in 3 * (1330 µm *1330 µm) ([1]; Fig S8 panels A, C) | Median Area in 3 * (1330 µm *1330 µm) ([1]; Fig S8 panels A, C) | log Avg Area in 3 * ( (1330 µm *1330 µm)) ([1]; Fig S8 panels A, C) | log Median Area in 3 * ( (1330 µm *1330 µm)) ([1]; Fig S8 panels A, C) | log Total Area of all particles in 3 * (1330 µm *1330 µm) ([1]; Fig S8 panels A, C) | Number of aggregates in 3 * (1330 µm *1330 µm) [1, 4] | Avg Area in 3 *(1330 µm *1330 µm) [1, 5] | Median Area in 3 * (1330 µm *1330 µm) [1, 6] | Total Area of all particles in 3 * (1330 µm *1330 µm) [1, 7] | Number of aggregates in 3 * (1330 µm *1330 µm) [1, 8] | Conversion Rate / % ( from sieste 2021 or Schilling2019) [2] | retroviral transduction enhancement compared to virus only [3]
KIKIQIN [JGB3] | 197.4 | 0.6021 | 197.8005 | 2.295 | 2.296 | 2.897 | 4 | 197.4 | 197.8005 | 789.7 | 4 | – | –
KIKQIIN [JGA3] | 51.51 | 1.067 | 15.7 | 1.712 | 1.196 | 2.779 | 11.67 | 51.51 | 15.7 | 600.94 | 11.67 | – | –
RGDSGGGGGGKIKIQIC [TM114 / RC17] | 372.8 | 1.857 | 53.0945 | 2.572 | 1.725 | 4.429 | 72 | 372.8 | 53.0945 | 26843.97667 | 72 | – | –
KIKIQIII [TG7] | – | – | – | – | – | – | – | – | – | – | – | 87% | –
RGDKIKIQINM [MG8a / CN17] | – | – | – | – | – | – | – | – | – | – | – | 48% | –
KLVFFAK [reference compound] | – | – | – | – | – | – | – | – | – | – | – | – | > 4 fold
KFKFQFFF [TG12] | – | – | – | – | – | – | – | – | – | – | – | 99% | –
HHHHKIKIQINMYYYY [TM16] | 97.09 | 2.3686 | 27.74 | 1.987 | 1.443 | 4.356 | 233.7 | 97.09 | 27.74 | 22686.609 | 233.7 | – | –
HIHIQIC [CN12] | 747.6 | 1.523 | 85.979 | 2.874 | 1.934 | 4.397 | 33.33 | 747.6 | 85.979 | 24920.46633 | 33.33 | – | –
